Patent publication US20220031680A1, “Donecopride As Neuroprotective Agent In the Treatment of Neurodegenerative Diseases” (priority 2018, published 2022)

Columns and labels:
[1] = system: rat primary GABAergic neurons under a growth factor deprivation; test: Survival of GABAergic neurons after growth factor deprivation; format: cell-based; settings: BDNF and GDNF deprivation 96 h
Protocol: The aim of this study was to investigate the neuroprotective effect of MR33583 (at 4 concentrations) in MSN of striatum survival after growth factor deprivation (BDNF and GDNF deprivation), an in vitro model of Huntington's disease.
Rat MSN of striatum were cultured as described by Ivkovic et al. (1999) J. Neurosci. 19:5409-5419 and Schinelli et al. (1988) J. Neurochem. 50:1900-1907. Briefly pregnant female rats of 15 days gestation were killed using a deep anesthesia with CO2 chamber and a cervical dislocation. Fetuses were collected and immediately placed in ice-cold L15 Leibovitz medium with a 2% penicillin (10,000 U/ml) and streptomycin (10 mg/ml) solution (PS) and 1% bovine serum albumin (BSA). Only a restricted ventral portion of the mesencephalic flexure was used for cell preparation as this is the region of the developing brain rich in MSN cells. These areas were treated for 20 min at 37° C. with a trypsin-EDTA solution at a final concentration of 0.05% trypsin and 0.02% EDTA. […] Viable cells were counted in a Neubauer cytometer using the trypan blue exclusion test. […]
(§1) Test compounds were tested in 96-well plate (n=6 culture wells per condition). The following conditions were assessed: […]
The following read-out was investigated: Analysis of MSNs survival (GAD67 staining, number of GABAergic neurons).

[2] = system: TDP-43; test: Cytoplasmic TDP-43 in spinal motor neurons after glutamate injury; format: cell-based, rat; settings: glutamate 5 μM 20 min; highest dose
Protocol: (§2) Rat spinal cord motor neurons (MNs) were cultured as described by Martinou et al. (1992) Neuron. 8:737-744 and Wang et al. (2013) Hum. Mol. Genet. 22:4706-4719. Briefly, pregnant female rats of 14 days gestation (Rats Wistar; Janvier Labs France) were killed using a deep anesthesia with CO2 chamber and a cervical dislocation. Then, fetuses were removed from the uterus and immediately placed in ice-cold L15 Leibovitz medium with a 2% penicillin (10,000 U/ml) and streptomycin (10 mg/ml) solution (PS) and 1% bovine serum albumin (BSA).
Spinal cords were treated for 20 min at 37° C. with a trypsin-EDTA solution at a final concentration of 0.05% trypsin and 0.02% EDTA. […] Viable cells were counted in a Neubauer cytometer, using the trypan blue exclusion test. […]
as §1
(§3) The following endpoints were automatically assessed: • Analysis of neuron survival (MAP-2 staining, number of neurons), • Analysis of neurite network (MAP-2 staining, total neurite length in μm), • Analysis of neurite network/neurons (neuronal network/number of MAP2 neurons), • Analysis of cytoplasmic TDP-43 in MAP-2 positive neurons (overlapping between MAP-2 and cytoplasmic TDP-43 in μm^2).

[3] = system: spinal motor neurons injured with glutamate; test: Survival and neurite network of primary spinal motor neurons after glutamate injury; format: cell-based, rat; settings: glutamate 5 μM 20 min
Protocol: as §2
Spinal cords were treated for 20 min at 37° C. with a trypsin-EDTA solution at a final concentration of 0.05% trypsin and 0.02% EDTA. The dissociation was stopped by addition of Dulbecco's modified Eagle's medium (DMEM) with 4.5 g/I glucose, containing DNAse I grade II (final concentration 0.5 mg/ml) and 10% fetal calf serum (FCS). Cells were mechanically dissociated by three forced passages through the tip of a 10-ml pipette. Cells were then centrifuged at 515×g for 10 min at 4° C. The supernatant was discarded, and the pellet was resuspended in a defined culture medium consisting of Neurobasal medium with a 2% solution of B27 supplement, 2 mmol/I L-glutamine, 2% PS solution, and 10 ng/ml brain-derived neurotrophic factor (BDNF). Viable cells were counted in a Neubauer cytometer, using the trypan blue exclusion test. Cells were seeded at a density of 20,000 per well in 96-well plates precoated with poly-L-lysine and were cultured at 37° C. in an air (95%)-CO2 (5%) incubator.
The medium was changed every 2 days. […]
as §1, §3

SMILES | concentration with significant neuroprotective effect (survival of GABAergic neurons) [1] | dose reducing the signal of TDP43 in the cytoplasm of spinal motor neurons [2] | concentrations significantly improving spinal motor neurons survival ([3]; 24 h) | concentrations significantly protecting the neurite network ([3]; spinal motor neurons) | ratio neurite network length/number of neurons ([3]; spinal motor neurons)
COc1cc(N)c(F)cc1C(=O)CCC1CCN(CC2CCCC2)CC1 [MR33583] | 50 nM | 100 nM |  |  | 
COc1cc(N)c(F)cc1C(=O)CCC1CCN(CC2CCCCCC2)CC1 [MR36014] |  |  | 1 nM | 1 nM | not modified
